Laboratory results as given in patent US6355665B1, “1H-4(5)-substituted imidazole derivatives, their preparation and their use as histamine H3 receptor ligands” (James Black Foundation Limited, priority 1997, dated 2002).

Columns and labels:
Histamine H3 receptor [1] = target: T1, Histamine H3 receptor (Cavia porcellus, UniProt Q9JI35); test: Histamine H3 radioligand binding assay, guinea pig ileum ([3H]-R-α-methylhistamine); set-up: The cortex was dissected, weighed and homogenised in ice-cold 20 mM Hepes-NaOH buffer; from tissue; host or cells: guinea pig cerebral cortex membranes; conditions: guinea pig ileum longitudinal muscle myenteric plexus membranes; [3H]-R-α-methylhistamine 3 nM; typical variance ±0.12 log units; read-out: pKI (binding assay) - ileum (converted)
Protocol: Histamine H3 Radioligand Binding Assay—Guinea Pig Ileum
Male Dunkin Hartley guinea pigs (200-300 g) were used. The small intestine was rapidly removed (cut ^˜5 cm from caecum and 5 cm from stomach) and placed in ice-cold 20 mM Hepes-NaOH buffer (pH7.4 at 21±3° C.). The tissue was cut into ^˜10 cm segments, flushed through with ice-cold 20 mM Hepes-NaOH buffer and placed in a beaker containing fresh buffer at 4° C. 10 cm segments of ileum were threaded onto a glass pipette and the longitudinal muscle myenteric plexus was peeled away from the circular muscle using damp cotton-wool. Longitudinal muscle myenteric plexus was immediately placed in ice-cold Viaspan® solution (^˜100 ml for tissue from 3 guinea pigs) and placed in the refrigerator for 24 hours.
Pre-soaked tissue was weighed and minced with scissors. The tissue was then homogenised in Viaspan® using a polytron (Kinematica AG; PT-DA 3020/2TS, 3×^˜1-2 s). 50 ml of 500 mM Tris HCl (pH6.9 at 21±3° C.) was added to the tissue and the mixture centrifuged at 39,800×g for 12 min at 4° C. The supernatant was discarded and rehomogenised in 100 ml ice-cold 20 mM Hepes-NaOH buffer (pH7.4 at 21±3° C.) using a teflon-in-glass homogeniser (setting 10; 3×). The homogenate was recentrifuged at 39,800×g and the pellet resuspended in 20 mM Hepes-NaOH buffer (pH7.4 at 21±3° C.), to a tissue concentration of 50 mg.ml^−1, using a polytron (Brinkman, PT10, 3×^˜1 s).
Guinea pig ileum longitudinal muscle myenteric plexus membranes (400 μl) were incubated for 165 min at 21±3° C. in a final volume of 500 μl with 20 mM Hepes-NaOH buffer containing [^3H]-R-α-methylhistamine (50 μl; 3 nM) and competing compound. Total and non-specific binding of [^3H]-R-α-methylhistamine were defined using 50 μl of buffer and 50 μl of 10 μM thioperamide, respectively. The assay was terminated by rapid filtration through Whatman GF/B filters, presoaked (2 hr) in 0.1% polyethyleneimine, using a Brandell Cell Harvester. The filters were washed (3×3 ml) with ice-cold 50 mM Tris-HCl (pH6.9 at 21±3° C.), transferred into scintillation vials, 5 ml liquid scintillation cocktail was added and after 4 hours the bound radioactivity was determined by counting (4 min) in a Beckman liquid scintillation counter.
Data are analysed using GraphPad prism and the general equation for a competition curve with variable Hill slope (nH). [formula]
X is the log concentration of competing compound,
Y is the binding obtained at each concentration of X,
pIC50 is the […] required to compete for half of the specific binding.
The IC50 is converted to the K1 using the Cheng Prusoff equation,
IC50 is the concentration of competitor required to compete for half the specific binding,
L is the radioligand concentration used,
KD is the equilibrium dissociation constant for the radioligand determined by saturation experiments.
Typical variance in this assay is ±0.12 log units.

Histamine H3 receptor [2] = target: T1, Histamine H3 receptor; test: Histamine H3 radioligand binding assay, guinea pig cortex ([3H]-R-α-methylhistamine); set-up: The cortex was dissected, weighed and homogenised in ice-cold 20 mM Hepes-NaOH buffer; from tissue; host or cells: guinea pig cerebral cortex membranes; conditions: guinea pig cortex membranes; [3H]-R-α-methylhistamine 0.1 nM; typical variance ±0.12 log units; read-out: pKI (binding assay) - cortex (converted)
Protocol: Histamine H3 Radioligand Binding Assay—Guinea Pig Cortex
Male Dunkin Hartley guinea pigs (200-300 g) were used. The whole brain was removed and immediately placed in ice-cold 20 mM Hepes-NaOH buffer (pH7.4 at 21±3° C.). The cortex was dissected, weighed and homogenised in ice-cold 20 mM Hepes-NaOH buffer (pH7.4 at 21±3° C.) (50 ml/guinea-pig cortex) using a polytron (Kinematica AG; PT-DA 3020/2TS, 3×3 s). The homogenate was centrifuged at 100×g for 5 min and the supernatants pooled and stored at 4° C. The pellets were rehomogenised in fresh ice-cold buffer (80 ml) and recentrifuged (100×g for 5 min). The supernatants were pooled and pellets rehomogenised and recentrifuged (100×g for 5 min). All supernatants were pooled and centrifuged at 39,800×g for 12 min at 4° C. The final pellet was resuspended in 20 mM Hepes-NaOH buffer (pH7.4 at 21±3° C.) to a tissue concentration of 7.5 mg.ml^−1, using a teflon-in-glass homogeniser.
Incubation Conditions and Data Analysis
These were essentially identical to those used for the guinea pig ileum myenteric plexus assay described above, except that the final assay concentration of [^3H]-R-α-methylhistamine was 0.1 nM. Typical variance in this assay is ±0.12 log units.

Histamine H3 receptor [3] = target: T1, Histamine H3 receptor; test: ileal longitudinal muscle, myenteric plexus functional assay (rightward shift of R-(α)-methylhistamine E/[A] curves, Schild); assay type: cell-based; set-up: the longitudinal muscle layer and adhering myenteric plexus was teased away; from tissue; host or cells: guinea pig ileal longitudinal muscle with myenteric plexus (organ bath); conditions: guinea pig ileum longitudinal muscle myenteric plexus, electrically stimulated; antagonism of R-(α)-methylhistamine; typical variance ±0.15 log units; read-out: pKB (functional assay) - ileum (converted)
Protocol: The biological activity of the compounds of the examples was measured using the ileal longitudinal muscle, myenteric plexus assay described by Paton and Aboo Zar (J. Physiol. 1968, 194, 13-33). Male Dunkin-Hartley guinea pigs (250-300 g) were employed. Briefly, a 50 cm portion of ileum proximal to the caecum was removed, after discarding the terminal 20 cm. Ileal segments (3 cm) were cleaned by passing Krebs-Henseleit buffer containing 3 μM mepyramine gently through the ileum using a Pasteur pipette (size: 13.8 cm length, 0.65 cm diameter). To avoid unnecessary damage to the tissue, Krebs-Henseleit buffer was passed through the ileal segment, while it was lying horizontally on a petri dish. Therefore, the ileum was not over-distended and the buffer flowed through with ease. Each segment was then passed over a Pasteur pipette and the longitudinal muscle layer and adhering myenteric plexus was teased away using moist cotton wool, by stroking tangentially away from the mesenteric attachment. The tissues were suspended in 20 ml organ baths containing Krebs-Henseleit buffer at 37±1° C. and gassed with 95% CO2/5% O2. The tissues were ligated to two parallel stainless steel wires, situated between two platinum electrodes (0.76 cm length, 0.06 cm diameter). All measurements were recorded isometrically (Grass FTO3 transducer). Following an initial loading tension of 1 g, the tissues were stimulated with electrical pulses at a frequency of 0.1 Hz and a pulse duration of 0.5 msec, as described by Kosterlitz & Watt (Br. J. Pharmacol. 1968, 266-276). Initially, the tissues were stimulated at supramaximal (1.3 fold times maximal) voltage for a period of 30 min and then the tissues were washed and re-stimulated. A “sighter dose” of the selective histamine H3-receptor agonist, R-(α)-methylhistamine (0.3 μM) (Arrang et al. Nature, 1987, 117-123), was administered. Upon generation of response, the “sighter dose” was removed from the tissues by “washout” (6 washes over 60 min) and during this period the electrical stimulation was switched off. The tissues were then re-stimulated and allowed to stabilise prior to the addition of drug treatments, which were allocated on a randomised block basis to the organ baths. Following the incubation period, a single cumulative E/[A] curve was obtained. The experimental E/[A] curve data was expressed as the percentage inhibition of the peak height of electrically-stimulated contraction. Antagonist affinity values were calculated from the degree of rightward shift of the R-(α)-methylhistamine E/[A] curves using Schild's methods (Arunlakshana & Schild Br. J. Pharmacol. 1959, 48-58). Typical variance in this assay is ±0.15 log units.

T1 sequence (Q9JI35 whole entry): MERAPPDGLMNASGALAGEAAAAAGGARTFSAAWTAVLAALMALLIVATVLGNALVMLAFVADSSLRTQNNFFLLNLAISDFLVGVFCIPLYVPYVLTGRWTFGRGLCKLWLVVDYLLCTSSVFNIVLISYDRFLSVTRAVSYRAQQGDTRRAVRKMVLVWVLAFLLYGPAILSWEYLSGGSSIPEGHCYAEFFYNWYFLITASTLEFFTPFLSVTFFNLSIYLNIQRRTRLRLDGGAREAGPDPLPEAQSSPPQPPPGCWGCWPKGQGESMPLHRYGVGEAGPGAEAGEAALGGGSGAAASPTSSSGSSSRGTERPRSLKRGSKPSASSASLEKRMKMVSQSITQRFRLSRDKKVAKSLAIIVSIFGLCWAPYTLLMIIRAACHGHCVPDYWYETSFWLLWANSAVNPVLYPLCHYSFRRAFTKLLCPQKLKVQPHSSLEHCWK

O=S(=O)(CCCCCc1c[nH]cn1)Cc1ccc(Cl)cc1 [Example 27, [5-(1H-Imidazol-4-yl)pentyl] 4-chlorobenzyl sulfone]
Ki (Histamine H3 receptor [1]): 11.7 nM
Ki (Histamine H3 receptor [2]): 0.661 nM
Kb (Histamine H3 receptor [3]): 14.1 nM

O=S(=O)(CC(O)CCCc1c[nH]cn1)NCCc1ccc(Cl)cc1 (stereo not drawn) [Example 12, N-(4-Chlorophenethyl)-2-hydroxy-5-(1H-imidazol-4-yl)-1-pentanesulfonamide]
Ki (Histamine H3 receptor [1]): 60.3 nM
Ki (Histamine H3 receptor [2]): 14.1 nM
Kb (Histamine H3 receptor [3]): 49 nM

O=S(=O)(CCCCc1c[nH]cn1)NCc1ccc(Cl)cc1 [Example 1, N-(4-Chlorobenzyl)-4-(1H-imidazol-4-yl)-1-butanesulfonamide]
Ki (Histamine H3 receptor [1]): 8.51 nM
Ki (Histamine H3 receptor [2]): 2.63 nM
Kb (Histamine H3 receptor [3]): 8.71 nM

O=S(=O)(/C=C/CCc1c[nH]cn1)NCc1ccc(Cl)cc1 [Example 3, (E)-N-(4-Chlorobenzyl)-4-(1H-imidazol-4-yl)-1-but-1-enesulfonamide]
Ki (Histamine H3 receptor [1]): 10.2 nM
Ki (Histamine H3 receptor [2]): 2.75 nM
Kb (Histamine H3 receptor [3]): 12.6 nM

O=S(=O)(CCCCCc1c[nH]cn1)NCc1ccc(Cl)cc1 [Example 5, N-(4-Chlorobenzyl)-5-(1H-imidazol-4-yl)-1-pentanesulfonamide]
Ki (Histamine H3 receptor [1]): 1.86 nM
Ki (Histamine H3 receptor [2]): 2.63 nM
Kb (Histamine H3 receptor [3]): 3.47 nM

O=S(=O)(CC(O)CCCc1c[nH]cn1)NCc1ccc(Cl)cc1 (stereo not drawn) [Example 6, N-(4-Chlorobenzyl)-2-hydroxy-5-(1H-imidazol-4-yl)-1-pentanesulfonamide]
Ki (Histamine H3 receptor [1]): 12.6 nM
Ki (Histamine H3 receptor [2]): 5.01 nM
Kb (Histamine H3 receptor [3]): 16.2 nM

O=S(=O)(CCCCCc1c[nH]cn1)CCc1ccc(Cl)cc1 [Example 26, [5-(1H-Imidazol-4-yl)pentyl] 4-chlorophenethyl sulfone]
Ki (Histamine H3 receptor [1]): 10.2 nM
Ki (Histamine H3 receptor [2]): 4.47 nM
Kb (Histamine H3 receptor [3]): 7.76 nM
